In patent US20230265151A1, “GIP/GLP1 CO-AGONIST COMPOUNDS” (priority 2020, published 2023) one finds Emax and EC50 data, which are given here for four molecules.

The structures appear in SMILES notation. Read-outs that look alike come from different tables or passages of the source.

Format in all cases: cell-based
The target in one assay is T1, hGIPR (Homo sapiens, UniProt P48546).
T1 construct: expressed in transfected cells
T1 sequence (P48546 22-466): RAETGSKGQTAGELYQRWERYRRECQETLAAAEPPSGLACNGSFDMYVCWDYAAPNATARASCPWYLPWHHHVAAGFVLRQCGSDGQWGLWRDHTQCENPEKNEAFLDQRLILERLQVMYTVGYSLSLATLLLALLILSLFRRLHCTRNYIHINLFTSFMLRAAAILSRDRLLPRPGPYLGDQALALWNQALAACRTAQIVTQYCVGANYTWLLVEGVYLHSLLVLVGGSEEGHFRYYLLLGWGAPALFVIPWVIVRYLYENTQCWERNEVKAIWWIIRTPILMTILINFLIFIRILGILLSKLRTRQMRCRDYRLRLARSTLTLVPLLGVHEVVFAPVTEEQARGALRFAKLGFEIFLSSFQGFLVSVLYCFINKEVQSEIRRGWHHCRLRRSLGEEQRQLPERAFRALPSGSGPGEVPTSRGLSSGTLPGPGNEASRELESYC
Put plainly: Functional cAMP formation (HTRF) in HEK-293 clonal cells expressing hGIPR, 0.1% bovine casein, without or with 1.0% human serum albumin. The note with it: for EC50: cAMP, 0.1% bovine casein (no human serum albumin), geometric mean. Put shortly:
(§1)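 Cells were stimulated with peptide for 30 min at 37° C, then intracellular cAMP was measured by competitive HTRF (665/620 nm ratio) and converted to nM using a cAMP standard curve. Relative EC50 and Emax came from four-parameter logistic fits of percent maximal response against peptide concentration.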
For orientation: Cyclic AMP is a second messenger, typically raised through Gs and lowered through Gi signalling.

The target of a further assay is hGLP-1R (Homo sapiens, UniProt P43220). Nature of the assay: Functional cAMP formation (HTRF) in HEK-293 clonal cells expressing hGLP-1R, 0.1% bovine casein, without or with 1.0% human serum albumin. Also noted: expressed in transfected cells. The settings on record: for EC50: cAMP, 0.1% bovine casein (no human serum albumin), geometric mean. Put shortly: as §1
Sequence of hGLP-1R (P43220 24-463): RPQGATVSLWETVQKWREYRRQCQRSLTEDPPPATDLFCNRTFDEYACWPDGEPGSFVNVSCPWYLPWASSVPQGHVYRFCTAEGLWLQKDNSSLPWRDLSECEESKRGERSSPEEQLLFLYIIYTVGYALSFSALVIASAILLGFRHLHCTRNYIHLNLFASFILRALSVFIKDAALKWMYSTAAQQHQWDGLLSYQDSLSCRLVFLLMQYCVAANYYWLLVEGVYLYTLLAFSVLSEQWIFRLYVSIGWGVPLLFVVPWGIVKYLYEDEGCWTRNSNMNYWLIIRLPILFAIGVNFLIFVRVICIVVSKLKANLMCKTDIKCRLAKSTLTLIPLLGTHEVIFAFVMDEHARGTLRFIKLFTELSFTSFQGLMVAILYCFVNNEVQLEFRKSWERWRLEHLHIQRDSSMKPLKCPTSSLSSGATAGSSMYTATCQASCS
A further assay addresses T2, hGCGR (Homo sapiens, UniProt P47871).
T2 construct: expressed in transfected cells
Put plainly: Functional cAMP formation (HTRF) in HEK-293 clonal cells expressing hGCGR, 0.1% bovine casein, without or with 1.0% human serum albumin. Put shortly:
as §1

[1] abbreviates: HEK293, cAMP, 37° C., 0.1% bovine casein, percent of maximal response to GLP-1(7-36)NH2, arithmetic mean, read-out: hGLP-1R Emax, % ± SEM.
Setting [2] is: cAMP, 37° C., 0.1% bovine casein (no human serum albumin), geometric mean, read-out: hGCGR EC50, nM (SEM, n).

T2 sequence (P47871 26-477): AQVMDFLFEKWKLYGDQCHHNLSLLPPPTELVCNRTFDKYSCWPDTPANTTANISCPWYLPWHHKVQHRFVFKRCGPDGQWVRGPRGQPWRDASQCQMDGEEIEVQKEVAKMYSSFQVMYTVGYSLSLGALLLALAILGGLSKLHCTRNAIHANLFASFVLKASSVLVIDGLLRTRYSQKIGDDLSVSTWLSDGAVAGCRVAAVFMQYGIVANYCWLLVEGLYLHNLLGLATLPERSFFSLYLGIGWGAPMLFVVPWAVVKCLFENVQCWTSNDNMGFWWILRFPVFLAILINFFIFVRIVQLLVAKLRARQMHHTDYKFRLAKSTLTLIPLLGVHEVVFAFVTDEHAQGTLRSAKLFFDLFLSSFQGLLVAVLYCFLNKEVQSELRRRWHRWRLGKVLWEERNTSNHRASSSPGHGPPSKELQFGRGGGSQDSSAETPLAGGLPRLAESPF

`CC[C@H](C)[C@H](NC(=O)[C@H](CC(C)C)NC(=O)[C@](C)(Cc1ccc(O)cc1)NC(=O)[C@@H](CCC(=O)O)NC(=O)[C@@H](NC(=O)[C@H](Cc1ccccc1)NC(=O)[C@H](CCCCNC(=O)COCCOCCNC(=O)CC[C@H](NC(=O)CCCCCCCCCCCCC(=O)O)C(=O)O)NC(=O)C(C)(C)NC(=O)[C@H](CCC(N)=O)NC(=O)[C@H](C)NC(=O)[C@H](CCCCNC(=O)COCCOCCNC(=O)CC[C@H](NC(=O)CCCCCCCCCCCCC(=O)O)C(=O)O)NC(=O)[C@H](CCCN)NC(=O)[C@H](CC(=O)O)NC(=O)[C@H](CC(C)C)NC(=O)[C@](C)(CC(C)C)NC(=O)[C@@H](NC(=O)C(C)(C)NC(=O)[C@H](Cc1ccc(O)cc1)NC(=O)[C@H](CC(=O)O)NC(=O)[C@H](CO)NC(=O)[C@@H](NC(=O)[C@](C)(Cc1ccccc1F)NC(=O)[C@@H](NC(=O)CNC(=O)[C@H](CCC(=O)O)NC(=O)C(C)(C)NC(=O)[C@@H](N)Cc1ccc(O)cc1)[C@@H](C)O)[C@@H](C)O)[C@@H](C)CC)[C@@H](C)CC)C(=O)N[C@@H](CCC(=O)O)C(=O)NCC(=O)NCC(=O)N1CCC[C@H]1C(=O)N[C@@H](CO)C(=O)N[C@@H](CO)C(=O)NCC(=O)N[C@@H](C)C(=O)N1CCC[C@H]1C(=O)N1CCC[C@H]1C(=O)N1CCC[C@H]1C(=O)N[C@@H](CO)C(N)=O` [Example 366]: the Emax on hGIPR (HEK293, cAMP, 37° C., 0.1% bovine casein and 1.0% human serum albumin, percent of maximal response to GIP(1-42)NH2, read-out: hGIPR Emax, % ± SEM) was 95.9%; at hGLP-1R (HEK293, cAMP, 37° C., 0.1% bovine casein and 1.0% human serum albumin, percent of maximal response to GLP-1(7-36)NH2, read-out: hGLP-1R Emax, % ± SEM), 98.3%; on hGLP-1R (setting [1]), 89.6%. Further, the EC50 at hGIPR (37° C., read-out: hGIPR EC50, nM (SEM, n)) was 0.0162 nM; at hGLP-1R (37° C., read-out: hGLP-1R EC50, nM (SEM, n)), 0.279 nM; at hGCGR (setting [2]) it was above 9950 nM; on hGCGR (cAMP, 37° C., 0.1% bovine casein and 1.0% human serum albumin, geometric mean (SEM, n), read-out: hGCGR EC50, nM (SEM, n)), above 9950 nM.

On to `CC[C@H](C)[C@H](NC(=O)[C@H](CCCN)NC(=O)[C@H](CC(=O)O)NC(=O)[C@H](CC(C)C)NC(=O)[C@](C)(CC(C)C)NC(=O)[C@@H](NC(=O)[C@H](CO)NC(=O)[C@H](Cc1ccc2ccccc2c1)NC(=O)[C@H](CC(=O)O)NC(=O)[C@H](CO)NC(=O)[C@@H](NC(=O)[C@](C)(Cc1ccccc1F)NC(=O)[C@@H](NC(=O)CNC(=O)[C@H](CCC(=O)O)NC(=O)C(C)(C)NC(=O)[C@@H](N)Cc1ccc(O)cc1)[C@@H](C)O)[C@@H](C)O)[C@@H](C)CC)C(=O)N[C@@H](C)C(=O)N[C@@H](CCC(N)=O)C(=O)NC(C)(C)C(=O)N[C@@H](CCCCNC(=O)COCCOCCNC(=O)COCCOCCNC(=O)CC[C@H](NC(=O)CCCCCCCCCCCCC(=O)O)C(=O)O)C(=O)N[C@@H](Cc1ccccc1)C(=O)N[C@H](C(=O)N[C@H](CCC(=O)O)C(=O)N[C@@](C)(Cc1ccc(O)cc1)C(=O)N[C@@H](CC(C)C)C(=O)N[C@H](C(=O)N[C@@H](CCCCNC(=O)COCCOCCNC(=O)COCCOCCNC(=O)CC[C@H](NC(=O)CCCCCCCCCCCCC(=O)O)C(=O)O)C(=O)NCC(=O)NCC(=O)N1CCC[C@H]1C(=O)N[C@@H](CO)C(=O)N[C@@H](CO)C(=O)NCC(=O)N[C@@H](C)C(=O)N1CCC[C@H]1C(=O)N1CCC[C@H]1C(=O)N1CCC[C@H]1C(=O)N[C@@H](CO)C(N)=O)[C@@H](C)CC)[C@@H](C)CC` [Example 253], for which the Emax at hGIPR (HEK293, 0.1% bovine casein and 1.0% human serum albumin, 37° C., percent of maximal response to GIP(1-42)NH2, read-out: hGIPR Emax, % ± SEM) was 78.9%; on hGLP-1R (HEK293, 0.1% bovine casein and 1.0% human serum albumin, 37° C., percent of maximal response to GLP-1(7-36)NH2, read-out: hGLP-1R Emax, % ± SEM), 114%; on hGLP-1R (setting [1]) it was 113%. For the same molecule, the EC50 on hGCGR (0.1% bovine casein and 1.0% human serum albumin, 37° C., geometric mean, read-out: hGCGR EC50, nM (SEM, n)) was above 9950 nM; on hGCGR (setting [2]), above 9950 nM.

Take `CCCCCCCCCCCC(=O)N[C@@H](CCC(=O)NCCOCCOCC(=O)NCCOCCOCC(=O)NCCCC[C@H](NC(=O)CNC(=O)CNC(=O)[C@H](CCC(=O)O)NC(=O)[C@@H](NC(=O)[C@H](CC(C)C)NC(=O)[C@](C)(Cc1ccc(O)cc1)NC(=O)[C@@H](CCC(=O)O)NC(=O)[C@@H](NC(=O)[C@H](Cc1ccccc1)NC(=O)[C@H](CCC(=O)O)NC(=O)C(C)(C)NC(=O)[C@H](CCC(N)=O)NC(=O)[C@H](C)NC(=O)[C@H](CCCCNC(=O)COCCOCCNC(=O)COCCOCCNC(=O)CC[C@H](NC(=O)CCCCCCCCCCC)C(=O)O)NC(=O)[C@H](CCCN)NC(=O)[C@H](CC(=O)O)NC(=O)[C@H](CC(C)C)NC(=O)[C@](C)(CC(C)C)NC(=O)[C@@H](NC(=O)C(C)(C)NC(=O)[C@@H](NC(=O)[C@H](CC(=O)O)NC(=O)[C@H](CO)NC(=O)[C@@H](NC(=O)[C@](C)(Cc1ccccc1F)NC(=O)[C@@H](NC(=O)CNC(=O)[C@H](CCC(=O)O)NC(=O)C(C)(C)NC(=O)[C@@H](N)Cc1ccc(O)cc1)[C@@H](C)O)[C@@H](C)O)C(C)C)[C@@H](C)CC)[C@@H](C)CC)[C@@H](C)CC)C(=O)N[C@@H](CO)C(=O)N[C@@H](CO)C(=O)NCC(=O)N[C@@H](C)C(=O)N1CCC[C@H]1C(=O)N1CCC[C@H]1C(=O)N1CCC[C@H]1C(=O)N[C@@H](CO)C(N)=O)C(=O)O` [Example 175]: the Emax amounted to 100% at hGIPR (HEK293, percent of maximal response to GIP(1-42)NH2, 37° C., 0.1% bovine casein, arithmetic mean, read-out: hGIPR Emax, % ± SEM) and 91.1% on hGLP-1R (HEK293, percent of maximal response to GLP-1(7-36)NH2, 37° C., 0.1% bovine casein, arithmetic mean, read-out: hGLP-1R Emax, % ± SEM). For the same molecule, the EC50 on hGLP-1R (incubated at 37° C., read-out: hGLP-1R EC50, nM (SEM, n)) was 0.227 nM; on hGCGR (cAMP, incubated at 37° C., 0.1% bovine casein (no human serum albumin), geometric mean, read-out: hGCGR EC50, nM (SEM, n)), above 9950 nM.

With `CC[C@H](C)[C@H](NC(=O)[C@H](CC(C)C)NC(=O)[C@](C)(Cc1ccc(O)cc1)NC(=O)[C@@H](CCC(=O)O)NC(=O)[C@@H](NC(=O)[C@H](Cc1ccccc1)NC(=O)[C@H](CCCN)NC(=O)C(C)(C)NC(=O)[C@H](CCC(N)=O)NC(=O)[C@H](C)NC(=O)[C@H](CCCCNC(=O)COCCOCCNC(=O)COCCOCCNC(=O)CC[C@H](NC(=O)CCCCCCCCCOc1ccc(C(=O)O)cc1)C(=O)O)NC(=O)[C@H](CCCN)NC(=O)[C@H](CC(=O)O)NC(=O)[C@H](CC(C)C)NC(=O)[C@](C)(CC(C)C)NC(=O)[C@@H](NC(=O)C(C)(C)NC(=O)[C@@H](NC(=O)[C@H](CC(=O)O)NC(=O)[C@H](CO)NC(=O)[C@@H](NC(=O)[C@](C)(Cc1ccccc1F)NC(=O)[C@@H](NC(=O)CNC(=O)[C@H](CCC(=O)O)NC(=O)C(C)(C)NC(=O)[C@@H](N)Cc1ccc(O)cc1)[C@@H](C)O)[C@@H](C)O)C(C)C)[C@@H](C)CC)[C@@H](C)CC)C(=O)N[C@@H](CCCCNC(=O)COCCOCCNC(=O)COCCOCCNC(=O)CC[C@H](NC(=O)CCCCCCCCCOc1ccc(C(=O)O)cc1)C(=O)O)C(=O)NCC(=O)NCC(=O)N1CCC[C@H]1C(=O)N[C@@H](CO)C(=O)N[C@@H](CO)C(=O)NCC(=O)N[C@@H](C)C(=O)N1CCC[C@H]1C(=O)N1CCC[C@H]1C(=O)N1CCC[C@H]1C(=O)N[C@@H](CO)C(N)=O` [Example 353], the Emax on hGIPR (HEK293, read-out: hGIPR Emax, % ± SEM, cAMP, 37° C., 0.1% bovine casein and 1.0% human serum albumin, percent of maximal response to GIP(1-42)NH2) is 84.8%; at hGIPR (HEK293, read-out: hGIPR Emax, % ± SEM, cAMP, 37° C., 0.1% bovine casein, percent of maximal response to GIP(1-42)NH2, arithmetic mean), 98.2%; on hGLP-1R (HEK293, read-out: hGLP-1R Emax, % ± SEM, cAMP, 37° C., 0.1% bovine casein and 1.0% human serum albumin, percent of maximal response to GLP-1(7-36)NH2), 92.5%; on hGLP-1R (HEK293, read-out: hGLP-1R Emax, % ± SEM, cAMP, 37° C., 0.1% bovine casein, percent of maximal response to GLP-1(7-36)NH2, arithmetic mean), 98%. The EC50 at hGIPR (hGIPR EC50, nM (SEM, n), 37° C.) is 0.0249 nM; at hGLP-1R (hGLP-1R EC50, nM (SEM, n), 37° C.), 0.203 nM; at hGCGR (hGCGR EC50, nM (SEM, n), cAMP, 37° C., 0.1% bovine casein (no human serum albumin), geometric mean) it was above 9950 nM; on hGCGR (hGCGR EC50, nM (SEM, n), cAMP, 37° C., 0.1% bovine casein and 1.0% human serum albumin, geometric mean (SEM, n)) it was above 9950 nM.

By Emax is commonly meant the maximal effect, on the per cent scale that the assay sets. By EC50 is commonly meant the concentration that produces a half-maximal response.
